Data reported in patent US10494377B1, “Bergenin lipoic acid ester with antioxidant activity and a method of preparing the same” (SHAANXI UNIVERSITY OF SCIENCE AND TECHNOLOGY, priority 2018, dated 2019).

Tests used:
[1] = DPPH radical scavenging activity assay; type: biochemical; conditions: for DPPH clearance rate: n = 3, 30 min, 517 nm; for scavenging effect on DPPH (in words): FIG. 1, 7.02-7020 ppm
Text: The Antioxidant Activity of Bergenin Lipoic Acid Ester Measured by a DPPH Radical Scavenging Activity Assay
2,2-Diphenyl-1-picryl hydrazyl (DPPH) is an organic compound composed of a stable organic radical. In the DPPH molecule, due to the presence of multiple electron-withdrawing —NO2 and large π bonds of the benzene ring, nitrogen free radical is stabilized. Its methanol solution is purple and has a maximum absorption peak at 517 nm. After the addition of an antioxidant, DPPH captures an electron to be paired with the free electron, and the purple fades and turns into a yellow substance. The absorption at 517 nm disappears, and the degree of fading is quantitatively related to the number of electrons it captures. Based on this principle, a spectrophotometer is used to detect the change of the absorbance of the DPPH radical in the sample solution, and the ability of the sample to provide hydrogen atoms and scavenge free radicals can be measured.
Preparation of DPPH solution: measuring exact amount of 2,2-diphenyl-1-picryl hydrazyl (DPPH) and dissolving in methanol to prepare a 0.2 mmol/L DPPH solution, stored at 0° C. in dark.
Preparation of test solutions: Vc (vitamin C, positive control), bergenin lipoic acid ester (sample), bergenin (control), lipoic acid (control), and mixture of bergenin and lipoic acid (reference). The test solutions were serially diluted with acetonitrile, and four groups of controls were separately dissolved in a test tube with a certain amount of methanol to prepare the same concentration gradient as the sample.
Absorbance measurement: Take 2 mL of sample solution (Table 1, number B), add 2 mL of DPPH solution with concentration of 2*10^−4 moL/L, mix and react in the dark at room temperature for 30 min, adjust to zero with methanol, and measure at 517 nm. The absorbance Ai was simultaneously measured for the absorbance Aj of 2 mL of methanol mixed with 2 mL of the sample solution and the absorbance Ao of 2 mL of DPPH solution mixed with 2 mL of acetonitrile (The experimental results are shown in Table 2).
Clearance calculation: clearance rate (%) [1−(Ai−Aj)/Ao]*100%

[2] = Takahashi et al. 2003; cited from earlier work
[3] = Takahashi et al. 2003; cited from earlier work; remark: listed apart in the source

SMILES | DPPH clearance rate ([1]; 7.02 ppm) [%] | DPPH clearance rate ([1]; 140.4 ppm) [%] | DPPH clearance rate ([1]; 702 ppm) [%] | DPPH clearance rate ([1]; 2808 ppm) [%] | DPPH clearance rate ([1]; 7020 ppm) [%] | scavenging effect on DPPH free radicals (in words) [2] | scavenging effect on superoxide anions (in words) [3] | scavenging effect on DPPH (in words) [1] | scavenging effect on DPPH (in words) ([1]; listed as bergenin lipoic acid ester) | scavenging ability compared with Vc (in words) ([1]; concentration above 2808 ppm)
O=C1O[C@H]([C@@H](O)CO)C(O)=C1O [Vc, Vitamin C] | 82.01 | 95.17 | 95.70 | 99.90 | 99.90 |  |  |  |  | 
COc1c(O)cc2c(c1O)[C@@H]1O[C@H](CO)[C@@H](O)[C@H](O)[C@H]1OC2=O [C, Bergenin] | 15.57 | 19.79 | 30.98 | 54.56 | 90.01 | good scavenging effect | good scavenging effect |  |  | 
COc1c(O)cc2c(c1O)C1OC(COC(=O)CCCCC3CCSS3)C(O)C(O)C1OC2=O (stereo not shown) [B, Bergenin lipoic acid ester] | 27.56 | 60.83 | 76.34 | 94.92 | 97.64 |  |  | better than E | significant scavenging effect on DPPH in a concentration-dependent manner | close to the scavenging ability of Vc
O=C(O)CCCCC1CCSS1 (stereo not shown) [D, Lipoic acid] | 20.40 | 28.64 | 39.66 | 60.54 | 82.95 |  |  |  |  | 
